Laboratory results: US12421276B2 (priority 2016, dated 2025)
Values joined by “and” are separate entries in the source; they are usually repeats but may differ in a detail not shown here. Equal values may be shown once. Read-outs that look alike come from different tables or passages of the source. Where a SMILES comes first, the peptide text is derived from it. [ ]: non-standard residue; d: D form. The star is where a group is joined. pY = N[CH](Cc1ccc(OP(=O)(O)O)cc1)C(=O)O; Hexanoyl = CCCCCC(=O)*; Ahx = NCCCCCC(=O)O

Tests used:
[1] = Plasma stability study, human plasma; type: in vitro ADME; settings: Human plasma, 1 μM, 37° C.
Procedure: (§1) Human and rat plasma (K2 EDTA) were obtained from Bioreclamation.
(§2) Compounds were dissolved as 0.3 mM DMSO stocks. Compounds were transferred to the plasma at 1 μM on a 96-well deep well plate. After mixing, samples were transferred to several 96-well plates (25 μL/well), and incubated at 37° C. The extent of metabolism was calculated as the disappearance of the test compound, compared to the 0-min control reaction incubations. Propantheline was included as a positive control to verify assay performance.
(§3) At each of the time points, 150 μL of quench solution (50% acetonitrile, 50% methanol with 0.05% formic acid) with internal standard (bucetin for positive ESI mode and warfarin for negative ESI mode) was transferred to each well. Plates were sealed and centrifuged at 4° C. for 15 minutes at 4000 rpm. The supernatant was transferred to fresh plates for LC/MS/MS analysis.
(§4) Elution conditions are detailed in the table below.
(§5) Initial rates of the clearance of test compounds were calculated using linear regression of semi-log plot of % remaining of compounds versus time. The elimination rate constant (equals to −slope) of the linear regression was then used to determine t½ values.

[2] = Plasma stability study, rat plasma; type: in vitro ADME; settings: Rat plasma, 1 μM, 37° C.
Procedure: as §1, §2, §3, §4, §5

[3] = Metabolic stability in simulated intestinal fluid (SIF), pH 6.8, with or without pancreatin; type: in vitro ADME; settings: 5 μM, 37° C.; for half-life: simulated gi fluid
Procedure: (§6) Metabolic Stability in SIF and SGF (Simulated Intestinal and Gastric Fluid)
Buffer 3=SIF without enzyme
Buffer 4=SIF with 1% pancreatin
(§7) SIF was prepared freshly with 8.7 mM NaOH, 28.65 mM NaH2PO4, 105.85 mM NaCl, with a final pH of 6.8. SGF was prepared freshly with 34.2 mM NaCl, with a final pH of 1.2. Enzymes such as pepsin or pancreatin were added to some buffers. Human and rat plasma (K2 EDTA) were purchased from BioreclamationIVT.
(§8) Compounds were dissolved as 1.5 mM DMSO stocks. Compounds were transferred to SIF, SGF, or plasma at 5 μM on a 96-well deep well plate. After mixing, samples were transferred to several 96-well plates (25 μL/well), and incubated at 37° C. The extent of metabolism was calculated as the disappearance of the test compound, compared to the 0-min control reaction incubations. Candesartan Cilexetil and omeprazole were included as positive controls for SIF and SGF, respectively, to verify assay performance.
as §3, with “(100% acetonitrile” for “(50% acetonitrile, 50% methanol”, “0.1%” for “0.05%”
as §4, §5

[4] = Metabolic stability in simulated gastric fluid (SGF), pH 1.2, with or without pepsin; type: in vitro ADME; settings: 5 μM, 37° C.; for half-life: simulated gi fluid
Procedure: as §6
Buffer 1=SGF without enzyme
Buffer 2=SGF with 0.32% pepsin
as §7, §8
as §3, with “(100% acetonitrile” for “(50% acetonitrile, 50% methanol”, “0.1%” for “0.05%”
as §4, §5

[5] = type: in vivo, rat; settings: rat, dosed as prodrug, 10 mg/kg equivalent of Base Structure
Procedure: • 1. Eight (8) male JVC SD rats (purchased from Charles River Lab) were monitored daily for body condition and health status during the 3-5 days acclimation period. The rats were randomly assigned into […] (n=4). • 2. […] The dosed rats were individually placed into a metabolic cage, and have access to food and water at all times. The urine from each rat was collected daily from the metabolic cages, and kept in dry ice. • 4. At predose (0 min), 5 min, 15 min, 30 min, 1 hr, 2 hr, 8 hr, and 24 hr post dosing, approximately 200 ul blood samples were collected from each rat and transferred to EDTA tubes. • 5. The blood samples in EDTA vials were centrifuged at 4° C. and 6,000 rpm for 10 minutes to generate ˜100 μl of plasma per sample. Blood samples were processed as quickly as possible and remain no longer than 2 min at room temperature and no longer than 15 minutes at 4° C. prior to processing. • 6. All samples were transferred for bioanalytic assay using LCMS

[6] = analyte Parent (Base Structure), Average
[7] = analyte Parent (Base Structure), Combined (average ± std. dev.)
[8] = analyte Parent (Base Structure), individual animals, 10 mg/kg
[9] = analyte Prodrug, Combined (average ± std. dev.)
[10] = analyte Prodrug, individual animals

For `CCCCCC(=O)N1C(Cc2ccc(OP(=O)([O-])[O-])cc2)C(=O)N(C(C(=O)NCCCCCC(N)=O)C(C)CC)C12CCN(C)CC2.[Na+].[Na+]` (stereo not drawn) [Compound 2], the half-life [1] was 7.08 h, the “Plasma Stability (% Parent Remaining) 0 min” value [1] was 100% and the “Plasma Stability (% Parent Remaining) 60 min” value [1] was 113%. The “Plasma Stability (% Parent Remaining) 120 min” value [1] was 90%, the “Plasma Stability (% Parent Remaining) 240 min” value [1] was 72% and the half-life [2] was 18.1 h. The “Plasma Stability (% Parent Remaining) 0 min” value [2] was 100%, the “Plasma Stability (% Parent Remaining) 60 min” value [2] was 82% and the “Plasma Stability (% Parent Remaining) 120 min” value [2] was 77%. For the same compound, the “Plasma Stability (% Parent Remaining) 240 min” value [2] was 83%, the “SIF Stability (pH 6.8) 0 min” value ([3]; +Pancreatin (1%)) was 100% and the “SIF Stability (pH 6.8) 60 min” value ([3]; +Pancreatin (1%)) was 94%. The “SIF Stability (pH 6.8) 120 min” value ([3]; +Pancreatin (1%)) was 51%, the “SIF Stability (pH 6.8) 240 min” value ([3]; +Pancreatin (1%)) was 34% and the half-life ([3]; pH 6.8, +Pancreatin (1%)) was 2.37 h. The half-life ([3]; pH 6.8, −Pancreatin) was 13.4 h, the “SIF Stability (pH 6.8) 0 min” value ([3]; −Pancreatin) was 100% and the “SIF Stability (pH 6.8) 60 min” value ([3]; −Pancreatin) was 82%. The “SIF Stability (pH 6.8) 120 min” value ([3]; −Pancreatin) was 82%, the “SIF Stability (pH 6.8) 240 min” value ([3]; −Pancreatin) was 78% and the “SGF Stability (pH 1.2) 0 min” value ([4]; +Pepsin (0.32%)) was 100%. The “SGF Stability (pH 1.2) 60 min” value ([4]; +Pepsin (0.32%)) was 94%, the “SGF Stability (pH 1.2) 120 min” value ([4]; +Pepsin (0.32%)) was 89% and the “SGF Stability (pH 1.2) 240 min” value ([4]; +Pepsin (0.32%)) was 73%. The half-life ([4]; pH 1.2, +Pepsin (0.32%)) was 8.62 h, the half-life ([4]; pH 1.2, −Pepsin) was 7.17 h and the “SGF Stability (pH 1.2) 0 min” value ([4]; −Pepsin) was 100%. The “SGF Stability (pH 1.2) 60 min” value ([4]; −Pepsin) was 84%, the “SGF Stability (pH 1.2) 120 min” value ([4]; −Pepsin) was 78% and the “SGF Stability (pH 1.2) 240 min” value ([4]; −Pepsin) was 67%. For the same compound, the Cl/F_obs [5, 6] was 0.2421 (mg/kg)/(ng/ml)/h, the Vz/F_obs [5, 6] was 6.571 (mg/kg)/(ng/ml) and the Cl/F_obs [5, 7] was 0.2 ± 0.1 (mg/kg)/(ng/ml)/h. The Vz/F_obs [5, 7] was 6.6 ± 6.9 (mg/kg)/(ng/ml), the Cl/F_obs [5, 8] was 0.1263 (mg/kg)/(ng/ml)/h and 0.2902 (mg/kg)/(ng/ml)/h and 0.3099 (mg/kg)/(ng/ml)/h and the Vz/F_obs [5, 8] was 0.6603 (mg/kg)/(ng/ml) and 4.961 (mg/kg)/(ng/ml) and 14.09 (mg/kg)/(ng/ml). For the same compound, the “AUMC 0-inf_obs” value ([5]; analyte Prodrug, Average) was 0 ng/ml * h^2, the Cl/F_obs ([5]; analyte Prodrug, Average) was 0 (mg/kg)/(ng/ml)/h and the Lambda_z ([5]; analyte Prodrug, Average) was 0 h⁻¹. The Tlag ([5]; analyte Prodrug, Average) was 0 h, the Tmax ([5]; analyte Prodrug, Average) was 0 h and the Vz/F_obs ([5]; analyte Prodrug, Average) was 0 (mg/kg)/(ng/ml). For the same compound, the “AUMC 0-inf_obs” value [5, 9] was 0 ng/ml * h^2, the Cl/F_obs [5, 9] was 0 (mg/kg)/(ng/ml)/h and the Lambda_z [5, 9] was 0 h⁻¹. The Tlag [5, 9] was 0 h, the Tmax [5, 9] was 0 h and the Vz/F_obs [5, 9] was 0 (mg/kg)/(ng/ml). The “AUMC 0-inf_obs” value [5, 10] was 0 ng/ml * h^2, the Cl/F_obs [5, 10] was 0 (mg/kg)/(ng/ml)/h and the Lambda_z [5, 10] was 0 h⁻¹. The Tlag [5, 10] was 0 h, the Tmax [5, 10] was 0 h and the Vz/F_obs [5, 10] was 0 (mg/kg)/(ng/ml).
For `CCCCCC(=O)NC(Cc1ccc(OP(=O)([O-])O)cc1)C(=O)NC(C(=O)NCCCCCC(N)=O)C(C)CC.[Na+]` (stereo not drawn) [Compound A30] (Hexanoyl-[pY]-Ile-[Ahx]-NH2; configuration not given here), the “Plasma Stability Half-Life” value [1] was 1.4 h, the “Plasma Stability (% Parent Remaining) 0 min” value [1] was 100% and the “Plasma Stability (% Parent Remaining) 60 min” value [1] was 36%. For the same compound, the “Plasma Stability (% Parent Remaining) 120 min” value [1] was 20%, the “Plasma Stability (% Parent Remaining) 240 min” value [1] was 12% and the “Plasma Stability Half-Life” value [2] was 21.79 h. The “Plasma Stability (% Parent Remaining) 0 min” value [2] was 100%, the “Plasma Stability (% Parent Remaining) 60 min” value [2] was 88% and the “Plasma Stability (% Parent Remaining) 120 min” value [2] was 87%. The “Plasma Stability (% Parent Remaining) 240 min” value [2] was 86%, the “SIF Stability (pH 6.8) Half-Life (min)” value ([3]; +Pancreatin (1%)) was 156.6 min and the “SIF Stability (pH 6.8) 0 min” value ([3]; +Pancreatin (1%)) was 100%. The “SIF Stability (pH 6.8) 60 min” value ([3]; +Pancreatin (1%)) was 70%, the “SIF Stability (pH 6.8) 120 min” value ([3]; +Pancreatin (1%)) was 51% and the “SIF Stability (pH 6.8) 240 min” value ([3]; +Pancreatin (1%)) was 34%. For the same compound, the “SIF Stability (pH 6.8) Half-Life (min)” value ([3]; −Pancreatin) was 68.4 min, the “SIF Stability (pH 6.8) 0 min” value ([3]; −Pancreatin) was 100% and the “SIF Stability (pH 6.8) 60 min” value ([3]; −Pancreatin) was 43%. The “SIF Stability (pH 6.8) 120 min” value ([3]; −Pancreatin) was 22%, the “SIF Stability (pH 6.8) 240 min” value ([3]; −Pancreatin) was 8% and the “SGF Stability (pH 1.2) Half-Life (min)” value ([4]; +Pepsin (0.32%)) was 248.3 min. For the same compound, the “SGF Stability (pH 1.2) 0 min” value ([4]; +Pepsin (0.32%)) was 100%, the “SGF Stability (pH 1.2) 60 min” value ([4]; +Pepsin (0.32%)) was 95% and the “SGF Stability (pH 1.2) 120 min” value ([4]; +Pepsin (0.32%)) was 64%. For the same compound, the “SGF Stability (pH 1.2) 240 min” value ([4]; +Pepsin (0.32%)) was 54%, the “SGF Stability (pH 1.2) Half-Life (min)” value ([4]; −Pepsin) was 1713.6 min and the “SGF Stability (pH 1.2) 0 min” value ([4]; −Pepsin) was 100%. For the same compound, the “SGF Stability (pH 1.2) 60 min” value ([4]; −Pepsin) was 95%, the “SGF Stability (pH 1.2) 120 min” value ([4]; −Pepsin) was 98% and the “SGF Stability (pH 1.2) 240 min” value ([4]; −Pepsin) was 89%.
